Experimental data taken from PubChem BioAssay (NCI).
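Results reflect a 48-hour exposure of cells in 96-well plates to compound at five concentrations. GI50: concentration for 50% inhibition of growth. TGI: total growth inhibition.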

What was measured:
Assay in all cases: inhibition of tumour cell growth, NCI panel, 48 h
[1] = tested on: 786-0 renal
[2] = tested on: ACHN renal
[3] = tested on: CAKI-1 renal
[4] = tested on: CCRF-CEM leukemia
[5] = tested on: DU-145 prostate
[6] = tested on: EKVX NSCLC
[7] = tested on: HCC-2998 colon
[8] = tested on: HCT-116 colon
[9] = tested on: HCT-15 colon
[10] = tested on: HL-60(TB) leukemia
[11] = tested on: HOP-62 NSCLC
[12] = tested on: HOP-92 NSCLC
[13] = tested on: HS 578T breast
[14] = tested on: IGROV1 ovarian
[15] = tested on: K-562 leukemia
[16] = tested on: KM12 colon
[17] = tested on: LOX IMVI melanoma
[18] = tested on: M14 melanoma
[19] = tested on: MCF7 breast
[20] = tested on: MDA-MB-231 breast
[21] = tested on: MDA-MB-435
[22] = tested on: MDA-N
[23] = tested on: MOLT-4 leukemia
[24] = tested on: NCI-H226 lung
[25] = tested on: NCI-H23 lung
[26] = tested on: NCI-H460 lung
[27] = tested on: NCI-H522 lung
[28] = tested on: NCI/ADR-RES ovarian
[29] = tested on: OVCAR-3 ovarian
[30] = tested on: OVCAR-4 ovarian
[31] = tested on: OVCAR-8 ovarian
[32] = tested on: PC-3 prostate
[33] = tested on: RPMI-8226 leukemia
[34] = tested on: RXF 393 renal
[35] = tested on: SF-268 CNS
[36] = tested on: SF-295 CNS
[37] = tested on: SF-539 CNS
[38] = tested on: SK-MEL-2 melanoma
[39] = tested on: SK-MEL-28 melanoma
[40] = tested on: SK-MEL-5 melanoma
[41] = tested on: SK-OV-3 ovarian
[42] = tested on: SNB-75 CNS
[43] = tested on: SR leukemia
[44] = tested on: SW-620 colon
[45] = tested on: T-47D breast
[46] = tested on: TK-10 renal
[47] = tested on: U251 CNS
[48] = tested on: UACC-257 melanoma
[49] = tested on: UO-31 renal
[50] = tested on: A498 renal
[51] = tested on: A549 NSCLC
[52] = tested on: BT-549 breast
[53] = tested on: COLO 205 colon
[54] = tested on: HT29 colon
[55] = tested on: MALME-3M melanoma
[56] = tested on: OVCAR-5 ovarian
[57] = tested on: SN12C renal
[58] = tested on: SNB-19 CNS
[59] = tested on: UACC-62 melanoma

C(=N/Nc1ccc(-c2nc3ccccc3[nH]2)cc1)/c1c(-c2ccccc2)[nH]c2ccccc12
TGI [1]: > 100 µM
TGI [2]: > 100 µM
TGI [3]: > 100 µM
TGI [4]: > 100 µM
TGI [5]: > 100 µM
TGI [6]: > 100 µM
TGI [7]: 1.22 µM
TGI [8]: 16.8 µM
TGI [9]: > 100 µM
TGI [10]: 1.06 µM
TGI [11]: 30.9 µM
TGI [12]: > 100 µM
TGI [13]: 0.889 µM
TGI [14]: > 100 µM
TGI [15]: 11.9 µM
TGI [16]: > 100 µM
TGI [17]: > 100 µM
TGI [18]: > 100 µM
TGI [19]: > 100 µM
TGI [20]: 12 µM
TGI [21]: 0.785 µM
TGI [22]: 0.185 µM
TGI [23]: > 100 µM
TGI [24]: 6.47 µM
TGI [25]: > 100 µM
TGI [26]: 32.3 µM
TGI [27]: 2.02 µM
TGI [28]: 17.4 µM
TGI [29]: 0.591 µM
TGI [30]: > 100 µM
TGI [31]: > 100 µM
TGI [32]: 3.92 µM
TGI [33]: 0.82 µM
TGI [34]: > 100 µM
TGI [35]: > 100 µM
TGI [36]: 12.7 µM
TGI [37]: 55.2 µM
TGI [38]: 0.794 µM
TGI [39]: > 100 µM
TGI [40]: > 100 µM
TGI [41]: 20.5 µM
TGI [42]: 59.9 µM
TGI [43]: 17.1 µM
TGI [44]: 75 µM
TGI [45]: > 100 µM
TGI [46]: > 100 µM
TGI [47]: 8.69 µM
TGI [48]: > 100 µM
TGI [49]: > 100 µM

CS(=O)(=O)Nc1ccc(-c2ccc3c(NC(=O)C4CC4)n[nH]c3c2)cc1
GI50 [1]: > 25 µM
TGI [1]: > 25 µM
GI50 [50]: > 25 µM
TGI [50]: > 25 µM
GI50 [51]: > 25 µM
TGI [51]: > 25 µM
GI50 [2]: > 25 µM
TGI [2]: > 25 µM
GI50 [52]: > 19.2 µM
TGI [52]: > 25 µM
GI50 [3]: > 25 µM
TGI [3]: > 25 µM
GI50 [4]: 24.2 µM
TGI [4]: > 25 µM
GI50 [53]: > 25 µM
TGI [53]: > 25 µM
GI50 [5]: > 23.8 µM
TGI [5]: > 25 µM
GI50 [6]: > 25 µM
TGI [6]: > 25 µM
GI50 [7]: > 25 µM
TGI [7]: > 25 µM
GI50 [8]: > 25 µM
TGI [8]: > 25 µM
GI50 [9]: > 25 µM
TGI [9]: > 25 µM
GI50 [10]: > 16.7 µM
TGI [10]: > 25 µM
GI50 [11]: > 25 µM
TGI [11]: > 25 µM
GI50 [12]: > 25 µM
TGI [12]: > 25 µM
GI50 [13]: 24.4 µM
TGI [13]: > 25 µM
GI50 [54]: > 23.6 µM
TGI [54]: > 25 µM
GI50 [14]: > 25 µM
TGI [14]: > 25 µM
GI50 [15]: 13.3 µM
TGI [15]: > 25 µM
GI50 [16]: > 16.2 µM
TGI [16]: > 25 µM
GI50 [17]: > 25 µM
TGI [17]: > 25 µM
GI50 [18]: 24.9 µM
TGI [18]: > 25 µM
GI50 [55]: > 23.1 µM
TGI [55]: > 25 µM
GI50 [19]: > 23.2 µM
TGI [19]: > 25 µM
GI50 [20]: > 25 µM
TGI [20]: > 25 µM
GI50 [21]: > 25 µM
TGI [21]: > 25 µM
GI50 [23]: > 15.7 µM
TGI [23]: > 25 µM
GI50 [24]: > 14.9 µM
TGI [24]: > 25 µM
GI50 [25]: > 25 µM
TGI [25]: > 25 µM
GI50 [26]: > 22.5 µM
TGI [26]: > 25 µM
GI50 [27]: > 25 µM
TGI [27]: > 25 µM
GI50 [28]: > 25 µM
TGI [28]: > 25 µM
GI50 [29]: > 21.2 µM
TGI [29]: > 25 µM
GI50 [30]: 7.2 µM
TGI [30]: > 25 µM
GI50 [56]: > 25 µM
TGI [56]: > 25 µM
GI50 [31]: > 25 µM
TGI [31]: > 25 µM
GI50 [32]: > 25 µM
TGI [32]: > 25 µM
GI50 [33]: 13.7 µM
TGI [33]: > 25 µM
GI50 [34]: > 17.7 µM
TGI [34]: > 25 µM
GI50 [35]: > 25 µM
TGI [35]: > 25 µM
GI50 [36]: > 25 µM
TGI [36]: > 25 µM
GI50 [37]: > 20 µM
TGI [37]: > 25 µM
GI50 [38]: > 18.5 µM
TGI [38]: > 25 µM
GI50 [39]: > 25 µM
TGI [39]: > 25 µM
GI50 [40]: > 11.9 µM
TGI [40]: > 25 µM
GI50 [41]: 13.7 µM
TGI [41]: > 25 µM
GI50 [57]: > 25 µM
TGI [57]: > 25 µM
GI50 [58]: > 25 µM
TGI [58]: > 25 µM
GI50 [42]: > 25 µM
TGI [42]: > 25 µM
GI50 [43]: > 21.2 µM
TGI [43]: > 25 µM
GI50 [44]: > 25 µM
TGI [44]: > 25 µM
GI50 [45]: > 13.2 µM
TGI [45]: > 25 µM
GI50 [46]: > 25 µM
TGI [46]: > 25 µM
GI50 [47]: > 25 µM
TGI [47]: > 25 µM
GI50 [48]: > 25 µM
TGI [48]: > 25 µM
GI50 [59]: 22.7 µM
TGI [59]: > 25 µM
GI50 [49]: > 25 µM
TGI [49]: > 25 µM
